Reference: ChEMBL document CHEMBL4052722, “Virtual screening, synthesis and biological evaluation of DNA intercalating antiviral agents” (Bioorg Med Chem Lett, 2017)

Legend:
[1] = test system: Vesicular stomatitis virus; assay: Antiviral activity against Vesicular stomatitis virus at 0.2 to 620 uM after 24 hrs post infection relative to control; type: functional
[2] = species: Bos taurus; assay: Displacement of ethidium bromide from calf thymus DNA by fluorescence binding assay

Compound	Activity [1]	log Ka [2]
CC1CCN(CC(=O)N/N=C2\C(=O)Nc3ccccc32)CC1	60%	5.4
CC1CCN(CCCCn2c3ccccc3c3nc4ccccc4nc32)CC1	20%	5.8
CCN(CC)CCCOC(=O)CCCn1c2ccccc2c2nc3ccccc3nc21	0%	5.29
O=C(CCCN1C(=O)c2cccc3cccc(c23)C1=O)NCCCN1CCOCC1	30%	5.07
CCCN(CCC)CCCn1c2ccccc2c2nc3ccccc3nc21	41%	6.13
CN(C)CCCCn1c2ccccc2c2nc3ccccc3nc21	30%	5.61
CCN(CC)CCN1C(=O)/C(=N\NC(=O)CN2CCN(C)CC2)c2ccccc21	0%	5.99
c1ccc2nc3c(nc2c1)c1ccccc1n3CCN1CCCCCC1	90%	6.16
O=C(CCCn1c2ccccc2c2nc3ccccc3nc21)OCCCN1CCOCC1	100%	5.35
c1ccc2nc3c(nc2c1)c1ccccc1n3CCOCCN1CCCCC1	51%	5.19
CCN(CC)CCN1C(=O)/C(=N\NC(=O)CN2CCOCC2)c2ccccc21	8%	6.21
CCCN(CCC)CCCCn1c2ccccc2c2nc3ccccc3nc21	13%	5.49
c1ccc2nc3c(nc2c1)c1ccccc1n3CCN1CCOCC1	85%	5.89
O=C(Cn1c2ccccc2c2nc3ccccc3nc21)NCCN1CCCCC1	80%	5.15
OCCNCCn1c2ccc3ccccc3c2c2nc3ccccc3nc21	20%	6.8
O=C(Cn1c2ccccc2c2nc3ccccc3nc21)NCCCNCCO	72%	5.06
O=C(CCN1C(=O)c2cccc3cccc(c23)C1=O)NCCN1CCOCC1	5%	5.78
CN(C)CCCNC(=O)CCCCCN1C(=O)c2cccc3cccc(c23)C1=O	100%	6.1
c1ccc2c(c1)ccc1c2c2nc3ccccc3nc2n1CCN1CCCCC1	20%	6.61
CC1CCCCN1CCCCn1c2ccccc2c2nc3ccccc3nc21 (stereo not drawn)	26%	5.6
CCCCN(CC)CCn1c2ccccc2c2nc3ccccc3nc21	50%	6.01
CN1CCN(CCCCn2c3ccccc3c3nc4ccccc4nc32)CC1	10%	6.04
CC1CCN(CCC(=O)N/N=C2\C(=O)Nc3ccccc32)CC1	80%	5.91

Compound	Activity [1]	log Ka [2]
CCN(CC)CCOC(=O)CCCn1c2ccccc2c2nc3ccccc3nc21	0%	5.45
CCCN(CCC)CCn1c2ccccc2c2nc3ccccc3nc21	90%	6.09
c1ccc2nc3c(nc2c1)c1ccccc1n3CCCCCN1CCCCC1	89%	5.68
CN(C)CCn1c2ccc3ccccc3c2c2nc3ccccc3nc21	21%	6.94
c1ccc2nc3c(nc2c1)c1ccccc1n3CCCCN1CCCCC1	11%	5.93
O=C(CCCN1C(=O)c2cccc3cccc(c23)C1=O)NCCN1CCOCC1	5%	5.87
CN1CCN(CC(=O)N/N=C2\C(=O)Nc3ccccc32)CC1	80%	5.43
c1ccc2c(c1)ccc1c2c2nc3ccccc3nc2n1CCN1CCOCC1	10%	6.94
O=C(CN1CCCCC1)N/N=C1\C(=O)Nc2ccccc21	100%	5.64
CCN(CC)CCN1C(=O)/C(=N\NC(=O)CN2CCC(C)CC2)c2ccccc21	100%	6.47
c1ccc2nc3c(nc2c1)c1ccccc1n3CCCN1CCOCC1	25%	6.09
c1ccc2nc3c(nc2c1)c1ccccc1n3CCN1CCCCC1	90%	6.01
c1ccc2nc3c(nc2c1)c1ccccc1n3CCCN1CCCCC1	28%	6.04
CN1CCN(CCn2c3ccc4ccccc4c3c3nc4ccccc4nc32)CC1	17%	6.58
CN(C)CCOCCn1c2ccccc2c2nc3ccccc3nc21	32%	5.59
c1ccc2nc3c(nc2c1)c1ccccc1n3CCN1CCCC1	85%	6.05
CCN(CC)CCN1C(=O)/C(=N\NC(=O)CCN2CCN(C)CC2)c2ccccc21	100%	6.15
c1ccc2nc3c(nc2c1)c1ccccc1n3CCNCCN1CCOCC1	40%	6.17
CCN(CC)CCCCn1c2ccccc2c2nc3ccccc3nc21	10%	6.22
O=C(CCN1C(=O)c2cccc3cccc(c23)C1=O)NCCCN1CCOCC1	30%	5.72
CN(C)CCCOC(=O)CCCn1c2ccccc2c2nc3ccccc3nc21	100%	5.32
OCCNCCn1c2ccccc2c2nc3ccccc3nc21	80%	6.31
CC1CCN(CCn2c3ccccc3c3nc4ccccc4nc32)CC1	90%	5.98

Compound	Activity [1]	log Ka [2]
CC1CCCCN1CCCn1c2ccccc2c2nc3ccccc3nc21 (stereo not drawn)	56%	6.28
CC1CCN(CCCn2c3ccccc3c3nc4ccccc4nc32)CC1	74%	6.07
O=C(Cn1c2ccccc2c2nc3ccccc3nc21)OCCCN1CCOCC1	15%	5.14
CN1CCN(CC(=O)N/N=C2\C(=O)Nc3ccc4ccccc4c32)CC1	70%	5.99
CC1CCCCN1CCn1c2ccc3ccccc3c2c2nc3ccccc3nc21 (stereo not drawn)	20%	6.83
CCN(CC)CC(=O)N/N=C1/C(=O)Nc2ccc3ccccc3c21	30%	6.3
CCN(CC)CCCCCCn1c2ccccc2c2nc3ccccc3nc21	75%	5.65
CCN(CC)CCNC(=O)CCCN1C(=O)c2cccc3cccc(c23)C1=O	20%	6.13
O=C(CN1CCCCC1)N/N=C1/C(=O)Nc2ccc3ccccc3c21	10%	6.21
O=C(CN1CCCC1)N/N=C1/C(=O)Nc2ccc3ccccc3c21	10%	6.44
CN(C)CCCCCn1c2ccccc2c2nc3ccccc3nc21	68%	5.66
CCN(CC)CCOCCn1c2ccccc2c2nc3ccccc3nc21	56%	5.26
OCCNCCCn1c2ccccc2c2nc3ccccc3nc21	37%	6.4
O=C(CCN1CCCCC1)N/N=C1\C(=O)Nc2ccccc21	0%	5.92
O=C(Cn1c2ccccc2c2nc3ccccc3nc21)NCCNCCO	70%	5.37
c1ccc2nc3c(nc2c1)c1ccccc1n3CCOCCN1CCOCC1	50%	5.32
CCCN(CCC)CCn1c2ccc3ccccc3c2c2nc3ccccc3nc21	16%	6.91
CCN(CC)CCCCCn1c2ccccc2c2nc3ccccc3nc21	12%	5.61
O=C(CCCn1c2ccccc2c2nc3ccccc3nc21)OCCN1CCCCC1	25%	5.57
CCN(CC)CC(=O)N/N=C1\C(=O)Nc2ccccc21	80%	5.96
O=C(Cn1c2ccccc2c2nc3ccccc3nc21)OCCN1CCOCC1	45%	5.18
CN1CCN(CCCn2c3ccccc3c3nc4ccccc4nc32)CC1	39%	6.37
CCN(CC)CCCNC(=O)CCCN1C(=O)c2cccc3cccc(c23)C1=O	15%	6.21

Compound	Activity [1]	log Ka [2]
O=C(CN1CCCCCC1)N/N=C1\C(=O)Nc2ccccc21	80%	5.49
CCN(CC)CCCOC(=O)Cn1c2ccccc2c2nc3ccccc3nc21	0%	5.17
OCCNCCCCn1c2ccccc2c2nc3ccccc3nc21	32%	5.96
CCN(CC)CCOC(=O)Cn1c2ccccc2c2nc3ccccc3nc21	45%	5.42
O=C(CCCCCN1C(=O)c2cccc3cccc(c23)C1=O)NCCCN1CCOCC1	50%	6.03
c1ccc2nc3c(nc2c1)c1ccccc1n3CCCCN1CCOCC1	35%	5.94
CCN(CC)CCn1c2ccccc2c2nc3ccccc3nc21	90%	6.07
CCN(CC)CCN1C(=O)/C(=N\NC(=O)CCN2CCCCC2)c2ccccc21	100%	5.39
CCN(CC)CCNC(=O)CCN1C(=O)c2cccc3cccc(c23)C1=O	20%	5.85
O=C(CN1CCCCCC1)N/N=C1/C(=O)Nc2ccc3ccccc3c21	20%	6.52
c1ccc2nc3c(nc2c1)c1ccccc1n3CCCCCCN1CCOCC1	6%	5.73
CN(C)CCOC(=O)Cn1c2ccccc2c2nc3ccccc3nc21	0%	5.46
O=C(CN1CCOCC1)N/N=C1/C(=O)Nc2ccc3ccccc3c21	15%	6.76
c1ccc2nc3c(nc2c1)c1ccccc1n3CCCCCN1CCOCC1	77%	5.73
CCN(CC)CCCNC(=O)CCN1C(=O)c2cccc3cccc(c23)C1=O	10%	5.79
CCN(CC)CCCn1c2ccccc2c2nc3ccccc3nc21	30%	6.11
CC1CCN(CC(=O)N/N=C2/C(=O)Nc3ccc4ccccc4c32)CC1	40%	7.11
CCN(CC)CCCNC(=O)CCCCCN1C(=O)c2cccc3cccc(c23)C1=O	50%	6.81
CC1CCN(CCn2c3ccc4ccccc4c3c3nc4ccccc4nc32)CC1	30%	6.83
CN(C)CCCn1c2ccccc2c2nc3ccccc3nc21	23%	6.01
